Laboratory results taken from patent publication EP4737450A1 (Longwood Pharmaceuticals (Hangzhou) Co., Ltd, priority 2023, dated 2025).
Like-named read-outs stand apart in the source and are kept apart here.

Columns and labels:
FXIa = FXIa (Homo sapiens, UniProt P03951); test: Inhibitory activity against FXIa in vitro (biochemical assay)
Procedure: Test Example 1. Test of the inhibitory activities of the compounds of the present invention against plasma kallikrein (PKa), KLK1 and FXIa in vitro.
PKK (R & D, Cat # 2497-SE) and Pro-Phe-Arg-AMC (Nanjing Peptide, Cat # NJP23946) solutions were prepared in reaction buffer (50 mM Tris-HCl, pH 7.5, 250 mM NaCl). The final concentrations of enzyme protein and Pro-Phe-Arg-AMC in the reaction mixture were 10 nM and 60 µM, respectively. The starting concentration of the positive reference substance Avoralstat was 100 nM, 3-fold dilution, 10 + 0 dose. 0.05 µL of compound in 100% DMSO was delivered to a 384-well plate by an acoustic liquid delivery technique (Echo665; nanoliter range). Compound duplex test. 5 µL of 2 × enzyme solution was transferred to a 384 reaction plate and centrifuged at 1000 rpm for 1 minute, incubated at 25°C for 15 minutes; 5 µL of 2 × Pro-Phe-Arg-AMC solution was transferred to a 384 reaction plate, centrifuged at 1000 rpm for 1 minute, incubated at 25°C for 3 hours. […] IC50 values and nonlinear regression curve fitting were obtained using GraphPad Prism software.

KLK1 = KLK1 (Homo sapiens, UniProt P06870); test: Inhibitory activity against KLK1 in vitro (biochemical assay)
Description: Test Example 1. Test of the inhibitory activities of the compounds of the present invention against plasma kallikrein (PKa), KLK1 and FXIa in vitro. […]

plasma kallikrein (PKa) = biological target: T1, plasma kallikrein (PKa) (Homo sapiens, UniProt P03952); test: Inhibitory activity against plasma kallikrein in vitro (fluorescence intensity enzyme assay, Pro-Phe-Arg-AMC substrate); assay type: biochemical
T1 construct: purchased R & D 2497-SE
Procedure, shortened: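 Fluorescence intensity enzyme assay with 10 nM enzyme and 60 µM Pro-Phe-Arg-AMC (final concentrations). Compounds in DMSO, tested in duplicate over a dose series. IC50 from nonlinear regression curve fitting.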

[1] = plasma kallikrein enzyme assay, Pro-Phe-Arg-AMC substrate, read-out: PKa IC50

T1 sequence (P03952 391-638 limits assumed): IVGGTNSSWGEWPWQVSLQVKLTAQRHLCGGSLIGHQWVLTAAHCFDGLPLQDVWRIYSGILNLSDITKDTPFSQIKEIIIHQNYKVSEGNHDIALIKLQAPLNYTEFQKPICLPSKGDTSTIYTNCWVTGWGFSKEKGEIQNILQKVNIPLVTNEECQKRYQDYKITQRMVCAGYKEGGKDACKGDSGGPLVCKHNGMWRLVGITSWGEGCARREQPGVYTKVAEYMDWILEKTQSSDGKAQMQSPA
T1 sequence (P03952 20-390 partner limits assumed): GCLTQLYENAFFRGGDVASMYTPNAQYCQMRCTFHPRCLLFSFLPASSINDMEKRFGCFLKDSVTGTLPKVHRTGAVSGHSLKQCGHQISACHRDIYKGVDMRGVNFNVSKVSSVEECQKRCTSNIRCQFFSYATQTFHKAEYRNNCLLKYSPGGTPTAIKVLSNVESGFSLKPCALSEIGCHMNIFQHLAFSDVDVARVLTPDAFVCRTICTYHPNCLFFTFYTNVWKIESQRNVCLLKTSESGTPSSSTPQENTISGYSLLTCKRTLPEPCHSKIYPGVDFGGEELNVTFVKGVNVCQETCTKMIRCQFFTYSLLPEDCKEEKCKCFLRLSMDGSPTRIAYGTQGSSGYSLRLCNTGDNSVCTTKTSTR
FXIa, sequence (P03951 388-625 limits assumed): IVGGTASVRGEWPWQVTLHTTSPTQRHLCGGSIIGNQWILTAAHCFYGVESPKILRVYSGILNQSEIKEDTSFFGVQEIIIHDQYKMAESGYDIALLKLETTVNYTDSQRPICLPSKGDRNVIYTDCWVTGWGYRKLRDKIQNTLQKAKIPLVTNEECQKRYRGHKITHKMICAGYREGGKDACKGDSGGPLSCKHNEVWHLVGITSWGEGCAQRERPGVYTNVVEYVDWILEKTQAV
FXIa, sequence (P03951 19-387 partner limits assumed): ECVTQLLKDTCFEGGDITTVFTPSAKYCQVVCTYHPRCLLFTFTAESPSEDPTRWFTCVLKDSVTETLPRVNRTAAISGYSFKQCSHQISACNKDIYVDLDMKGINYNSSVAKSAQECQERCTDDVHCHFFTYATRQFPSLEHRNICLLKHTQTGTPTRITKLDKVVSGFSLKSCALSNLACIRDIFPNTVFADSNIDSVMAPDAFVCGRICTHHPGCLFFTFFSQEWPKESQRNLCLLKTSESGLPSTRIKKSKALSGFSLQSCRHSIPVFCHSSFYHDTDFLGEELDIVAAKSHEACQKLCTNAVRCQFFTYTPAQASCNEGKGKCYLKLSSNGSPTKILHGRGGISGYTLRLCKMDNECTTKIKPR
KLK1, sequence (P06870 25-262, species assumed): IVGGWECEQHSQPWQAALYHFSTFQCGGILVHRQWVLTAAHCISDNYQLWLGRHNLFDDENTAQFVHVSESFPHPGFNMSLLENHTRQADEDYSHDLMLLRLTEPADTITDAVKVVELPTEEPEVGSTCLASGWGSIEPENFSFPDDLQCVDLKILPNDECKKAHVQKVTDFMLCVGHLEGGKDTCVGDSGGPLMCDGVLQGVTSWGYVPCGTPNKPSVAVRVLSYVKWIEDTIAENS

`N=C(N)c1ccc(CNC(=O)c2cnn(Cc3ccc(OCC4CC4)c(C(F)(F)F)c3)c2)cc1` [Compound 385] gave an IC50 (FXIa; values given in µM) greater than 10 µM, an IC50 (KLK1; values given in µM) greater than 10 µM and an IC50 (plasma kallikrein (PKa); [1]) of 0.88 nM.

`COCc1nn(Cc2ccc(CC3CC3)cc2)cc1C(=O)NCc1ccc(C(=N)N)cc1` [Compound 121] was tested, and the IC50 (FXIa; values given in µM) was greater than 10 µM, the IC50 (KLK1; values given in µM) was greater than 10 µM and the IC50 (plasma kallikrein (PKa); [1]) was 0.48 nM.

For `O=C(NCc1cc2ccncc2[nH]1)c1cn(Cc2ccc(Cn3ccccc3=O)cc2)nc1C(F)(F)F` [Compound 155], the IC50 (FXIa; values given in µM) was greater than 10 µM, the IC50 (KLK1; values given in µM) was greater than 10 µM and the IC50 (plasma kallikrein (PKa); [1]) was 1.48 nM.

In the case of `COCc1nn(Cc2ccc(Cn3cc(F)ccc3=O)cc2)cc1C(=O)NCc1c(C)cc(N)nc1C` [Compound 24], the IC50 (FXIa; values given in µM) is reported as greater than 10 µM, the IC50 (KLK1; values given in µM) is reported as greater than 10 µM and the IC50 (plasma kallikrein (PKa); [1]) is reported as 0.175 nM.

For `Cc1cc(N)nc(C)c1CNC(=O)c1cn(Cc2ccc(Cn3ccccc3=O)cc2)nc1C(F)(F)F` [Compound 116], the IC50 (FXIa; values given in µM) was greater than 10 µM, the IC50 (KLK1; values given in µM) was greater than 10 µM and the IC50 (plasma kallikrein (PKa); [1]) was 0.07 nM.

For `Cc1cc(N)nc(C)c1CNC(=O)c1cc(Cc2ccc(Cn3ccccc3=O)cc2)cn1C` [Compound 62], the IC50 (FXIa; values given in µM) was greater than 10 µM, the IC50 (KLK1; values given in µM) was greater than 10 µM and the IC50 (plasma kallikrein (PKa); [1]) was 0.12 nM.

For `Cn1ccc2cnc(CNC(=O)c3cn(Cc4ccc(Cn5ccccc5=O)cc4)nc3C3COC3)c(F)c21` [Compound 338], the IC50 (FXIa; values given in µM) was greater than 10 µM, the IC50 (KLK1; values given in µM) was greater than 10 µM and the IC50 (plasma kallikrein (PKa); [1]) was 1.38 nM.

Compound `Cc1cc2nccn2c(C)c1CNC(=O)c1cn(Cc2ccc(Cn3ccccc3=O)cc2)nc1C(F)(F)F` [Compound 142, N-((5,7-dimethylimidazo[1,2-a]pyridin-6-yl)methyl)-1-(4-((2-oxopyridin-1(2H)-yl)methyl]benzyl)-3-(trifluoromethyl)-1H-pyrazole-4-carboxamide] has an IC50 (FXIa; values given in µM) greater than 10 µM, an IC50 (KLK1; values given in µM) greater than 10 µM and an IC50 (plasma kallikrein (PKa); [1]) of 0.35 nM.

`O=C(NCc1ncc2c(c1F)NCC2)c1cn(Cc2ccc(Cn3ccccc3=O)cc2)nc1C(F)(F)F` [Compound 390] was tested, and the IC50 (FXIa; values given in µM) was greater than 10 µM, the IC50 (KLK1; values given in µM) was greater than 10 µM and the IC50 (plasma kallikrein (PKa); [1]) was 2.02 nM.

`Cc1cc(N)nc(C)c1CNC(=O)c1cn(Cc2cn3cc(C4CC4)ccc3n2)nn1` [Compound 6, N-((6-amino-2,4-dimethylpyridin-3-yl)methyl)-1-(6-cyclopropylimidazo[1,2-a]pyridin-2-yl)methyl-1H-1,2,3-triazole-4-carboxamide] was tested, and the IC50 (FXIa; values in nM) was less than 0.5 µM, the IC50 (KLK1; values in nM) was less than 0.5 µM and the IC50 (plasma kallikrein (PKa); [1]) was 0.032 nM.

With `N=C(N)c1ccc(CNC(=O)c2cnn(Cc3ccc(OC4CC4)c(C(F)(F)F)c3)c2)cc1` [Compound 379] the IC50 (FXIa; values given in µM) was greater than 10 µM, the IC50 (KLK1; values given in µM) was greater than 10 µM and the IC50 (plasma kallikrein (PKa); PKa IC50, plasma kallikrein enzyme assay, Pro-Phe-Arg-AMC substrate) was 0.97 nM.

Compound `N=C(N)c1ccc(CNC(=O)c2cnn(Cc3c(Cl)cc(CC4CC4)cc3Cl)c2)cc1` [Compound 347] has an IC50 (FXIa; values given in µM) greater than 10 µM, an IC50 (KLK1; values given in µM) greater than 10 µM and an IC50 (plasma kallikrein (PKa); [1]) of 1.04 nM.

Work on `COCc1nn(Cc2ccc(Cn3ccccc3=O)cc2)cc1C(=O)NCc1nccc(OC)c1F` [KVD900, reference compound] yielded an IC50 (FXIa; values given in µM) greater than 10 µM and an IC50 (KLK1; values given in µM) greater than 10 µM.

`COc1ccnc(CNC(=O)c2cn(Cc3ccc(Cn4ccccc4=O)cc3)nc2-c2c(C)cnn2C)c1F` [Compound 221, N-((3-fluoro-4-methoxypyridin-2-yl)methyl)-2',4'-dimethyl-1-(4-((2-oxopyridin-1(2H)yl)methyl)benzyl)-1H,2'H-[3,3'-bispyrazole]-4-carboxamide] gave an IC50 (FXIa; values given in µM) greater than 10 µM and an IC50 (KLK1; values given in µM) greater than 10 µM.

Compound `COCc1nn(Cc2ccc(Cn3ccccc3=O)cc2)cc1C(=O)NCc1ncc2c(c1F)N(C)CC2` [Compound 146] has an IC50 (FXIa; values given in µM) greater than 10 µM and an IC50 (KLK1; values given in µM) greater than 10 µM.

Compound `Cc1cc(N)nc(C)c1CNC(=O)c1cnn(Cc2ccc(N3CC4C(C3)C4(F)F)cc2C#N)c1` (stereo not shown) [Compound 20] has an IC50 (FXIa; values given in µM) greater than 10 µM and an IC50 (plasma kallikrein (PKa); read-out: PKa IC50) of 0.155 nM.

Work on `N#Cc1cc(N2CC3C(C2)C3(F)F)ccc1Cn1cnc(C(=O)NC2CCc3cc(N)ncc32)n1` (single isomer, unassigned) [Compound 53] yielded an IC50 (plasma kallikrein (PKa); [1]) greater than 100 nM.

`COCc1nn(Cc2ccc(N3CC4C(C3)C4(F)F)cc2C#N)cc1C(=O)NCc1cc2cnccc2[nH]1` (stereo not shown) [Compound 86] was tested, and the IC50 (plasma kallikrein (PKa); [1]) was 21.2 nM.

Compound `COCc1nn(Cc2ccc(Oc3ccccc3)cc2)cc1C(=O)NCc1ccc2nccn2c1` [Compound 125] has an IC50 (plasma kallikrein (PKa); [1]) of 329 nM.

`COCc1nn(Cc2ccc(Cn3ccccc3=O)cc2)cc1C(=O)NCc1cc2cnccc2[nH]1` [Compound 108] gave an IC50 (plasma kallikrein (PKa); [1]) of 36.8 nM.

Compound `C#Cc1nn(Cc2ccc(Cn3ccccc3=O)cc2)cc1C(=O)NCc1c(C)cc(N)nc1C` [Compound 81] has an IC50 (plasma kallikrein (PKa); [1]) of 77 nM.
